According to patent publication US20250027123A1, “Compositions, Systems, and Methods for Performing a Mannich Cyclization Reaction” (The Regents of the University of California, priority 2023, published 2025):

Columns and labels:
LolT [1] = target: T1, LolT (Penicillium expansum, UniProt A0A0A2J6G6); type: biochemical; conditions: 10 μM LolT, 4 mM diamino acid, pH 7.5 in D2O, 28° C.
Protocol: FIGS. 16A-16D provides reaction schematics and data of hydrogen-deuterium exchange assay of LolT with diamino acid substrate analogues. All reactions were monitored by 1H-NMR spectra and boiled enzymes were used as control. For mass data analysis, the reaction mixtures were derivatized with Fmoc-Cl.
H/D exchange assay. […] Reaction was incubated at 28° C. and monitored by NMR and LC-MS (reaction mixture was derivatized with Fmoc-Cl as described above before MS analysis). Fully deuterated products were further derivatized with Marfey's reagent (TCL) for chiral analysis. Briefly, an 80 μL reaction mixture was mixed with 20 μL acetone solution of Marfey's reagent (50 mM) and 20 μL NaHCO3 solution (1 M). The resulting mixture was incubated in a 42° C. water bath for 30 min. Next, 10 μL HCl (2M) was added to the derivatization mixture to quench the reaction. The resultant solution was analyzed on a Shimadzu LC-40 HPLC equipped with a Cosmosil, C18 AR-II analytical column. Derivatized amino acids were eluted with a linear gradient from 10% acetonitrile and to 40% acetonitrile over 20 min with a flow rate at 1 mL/min. All HPLC solvents (water and acetonitrile) were supplemented with 0.1% (v/v) formic acid.

LolD = target: T2, LolD (Epichloe uncinata, UniProt Q5MNI5); assay: Enzymatic assay for LolD (conversion monitored by HPLC/LC-MS after Fmoc-Cl derivatization); type: biochemical, E. uncinate; conditions: phosphate buffer pH 7.5, 28° C.
T2 construct: Bacterial expression plasmids were ordered from Twist Biosciences; made in house; host or cells: E. coli BL21(DE3)
T2 sequence (Q5MNI5 1-420): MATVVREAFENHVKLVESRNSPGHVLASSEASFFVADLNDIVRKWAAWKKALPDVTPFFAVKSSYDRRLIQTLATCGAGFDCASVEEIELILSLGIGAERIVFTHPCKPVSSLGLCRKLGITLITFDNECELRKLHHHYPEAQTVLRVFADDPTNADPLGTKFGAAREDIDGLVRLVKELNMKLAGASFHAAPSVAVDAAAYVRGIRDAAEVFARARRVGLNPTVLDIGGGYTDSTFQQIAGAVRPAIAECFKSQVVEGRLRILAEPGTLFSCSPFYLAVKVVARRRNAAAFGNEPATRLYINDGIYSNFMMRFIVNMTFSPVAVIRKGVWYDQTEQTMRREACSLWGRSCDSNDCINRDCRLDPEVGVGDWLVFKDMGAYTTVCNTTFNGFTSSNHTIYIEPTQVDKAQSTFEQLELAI
Excerpt: FIGS. 4A-4D provides schematics and data identifying LolT as a PLP-dependent Mannich cyclase. FIG. 4A provides a schematic depicting an elucidated pathway for the pyrrolizidine formation of loline. FIG. 4B provides HPLC analysis showing the reactions catalysed by LolT and LolD. All reactions were repeated for at least 3 times. Products were derivatized with Fmoc-Cl and analyzed by HPLC using a C18 column (Phenomenex Kinetex, 1.7 μm, 2.0×100 mm) with a linear elution gradient of 2-98% MeCN—H2O solvent system supplemented with 0.1% formic acid as additive. FIG. 4C provides DFT-calculated Mannich cyclization transition state for anti TS-1. FIG. 4D provides DFT-calculated Mannich cyclization transition state for syn TS-2.
FIGS. 7A-7B provides data of control experiments testing the function LolT and LolD using alternative substrates. FIG. 7A: Incubating LolD (10 μM) with 2 (1 mM) in phosphate buffer (pH 7.5) for 12 hrs at 28° C. FIG. 7B: Incubating LolT (1 μM) with decarboxylated 2 (1 mM) in phosphate buffer (pH 7.5) for 12 hrs at 28° C. All reactions were derivatized with Fmoc-Cl (50 mM) and analyzed by HPLC and LCMS. Decarboxylated 2 was prepared in situ by global deprotection of 12b, synthesis of 12b.
Enzymatic assays for LolT and LolD. […] The product was quantified based on the peak area of derivatized sample and compared with standard curve. […]

LolT [2] = target: T1, LolT; assay: Steady-state kinetic analysis of LolT-catalyzed Mannich cyclization; type: biochemical, P. expansum; conditions: reaction forming the named product
Protocol: FIGS. 10A-10B provide data of steady-state kinetic study of LolT and LolD. […] The results from both Fmoc-Cl and OPA derivatization were shown for comparison.
FIG. 10B: Kinetic analysis of LolD-catalyzed nonoxidative decarboxylation. All reactions were performed in assay buffer: phosphate buffer (pH 7.5), 50 μM PLP, corresponding substrate at various concentrations. For 5-endo cyclization, LolT was added to a final concentration of 0.1 μM and the reaction was quenched after 1 min; while for 6-endo cyclization, LolT was added to a final concentration of 1 μM and the reaction was quenched after 1 min, and for 7-endo cyclization, LolT was added to a final concentration of 10 μM and the reaction was quenched after 5 min. For decarboxylation reaction, LolD was added to a final concentration of 1 μM and the reaction was quenched after 20 min. The derivatization method was described in the methods section. All assays were performed in triplicates at 28° C. and individual point was shown on the plot. Except for reaction forming 5, all data were fitted to the standard Michalis-Menton equation.
Enzymatic assays for LolT and LolD. A typical reaction mixture (˜50 μl) includes ˜1 mM amino acid substrate in the assay buffer (50 mM K2HPO4, 50 μM PLP, pH 7.5). […] The product was quantified based on the peak area of derivatized sample and compared with standard curve. […]

LolT [3] = target: T1, LolT; assay: Two-component Mannich cyclization assay; type: biochemical, P. expansum; conditions: diamino acid plus aldehyde, KPi buffer
Protocol: Two-component Mannich cyclization assay. A typical reaction mixture at analytical scale (˜50 μL) includes 5 μM LolT, 5 mM diamino acid substrate, and 25 mM aldehyde substrates in 50 mM KPi buffer supplemented with 5% (v/v) DMSO. The reaction mixture was taken at different time points and derivatized with ortho-phthaldialdehyde (OPA) and 5-mercaptopentanoic acid before analysis on LC-MS. The pH value, reaction temperature, reaction time, and free PLP concentration (0.1%-10% mol) were optimized for selected reactions according to the analytic yield and diastereisomeric ratio (d.r.). Optimized reactions were scaled up to isolate the corresponding product for structural determination. To ease product isolation, the reaction mixtures were derivatized with Boc anhydride and isolated by reverse-phase chromatography. The isolated Boc-protected products were deprotected with TFA/CH2Cl2 and the isolation yields were calculated based on the Boc-protected form. To determine the enantiomeric excess (e.e.), isolated products were derivatized with Na-(5-fluoro-2,4-dinitrophenyl)-L-leucinamide and Na-(5-fluoro-2,4-dinitrophenyl)-D-leucinamide and separated on LC-MS. Briefly, 10 μL of amino acid product (10 mM in MeOH) was mixed with 10 μL of Na2CO3 (1 mM) and 10 μL of derivatizing reagent. […] The resulting mixture was analyzed by LC-MS.

T1 sequence (A0A0A2J6G6 entry or part of it): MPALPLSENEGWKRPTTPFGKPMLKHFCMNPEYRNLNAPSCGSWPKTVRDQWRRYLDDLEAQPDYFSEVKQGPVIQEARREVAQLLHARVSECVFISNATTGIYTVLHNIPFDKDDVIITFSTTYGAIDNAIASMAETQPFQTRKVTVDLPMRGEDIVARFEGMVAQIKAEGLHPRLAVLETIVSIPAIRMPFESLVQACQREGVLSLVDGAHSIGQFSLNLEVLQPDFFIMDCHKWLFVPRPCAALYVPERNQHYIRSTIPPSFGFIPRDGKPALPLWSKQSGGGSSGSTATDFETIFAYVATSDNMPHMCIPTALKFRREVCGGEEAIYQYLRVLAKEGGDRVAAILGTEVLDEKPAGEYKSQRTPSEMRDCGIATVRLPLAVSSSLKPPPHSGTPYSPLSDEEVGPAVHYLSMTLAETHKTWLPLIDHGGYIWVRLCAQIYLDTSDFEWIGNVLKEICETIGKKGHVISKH

Structure (SMILES)	Cα-H H/D exchange (carbanion formation) with LolT in D2O (in words) (LolT [1])	decrease of catalytic efficiency in comparison with 5-endo-trig cyclization to make 3 (LolT [2])	also measured
NCC[C@@H](N)C(=O)O [D-Dab]	no H/D exchange occurred	–	–
NCC[C@H](N)C(=O)O [L-Dab, (S)-2,4-diaminobutanoic acid]	rapidly washed out	–	–
N[C@@]1(C(=O)O)CCN2CCC[C@@H]21 [compound 3, (1S,7aR)-1-aminohexahydro-1H-pyrrolizine-1-carboylic acid]	–	–	conversion on incubation with LolD (in words) (LolD): quantitative conversion
N[C@@]1(C(=O)O)CCCN2CCC[C@@H]21 [compound 5, (8S,8aR)-8-aminooctahydroindolizine-8-carboxylic acid]	–	~12 fold	–
N[C@@]1(C(=O)O)CCCCN2CCC[C@@H]21 [compound 7, (9S,9aR)-9-aminooctahydro-1H-pyrrolo[1,2-a]azepine-9-carboxylic acid]	–	~1,000 fold	–
NCCCC[C@H](N)C(=O)O [lysine]	–	–	Mannich cyclization as amino acid donor with aldehydes (in words) (LolT [3]): No Mannich cyclization reaction took place
